In patent publication US10287269B2, “Pyrazolyl pyrimidinone compounds as PDE2 inhibitors” (Merck Sharp & Dohme Corp., priority 2015, dated 2019):

Target: T1, Rhesus PDE2A3 (Macaca mulatta, UniProt B3VTJ2)
T1 construct: made in house; host or cells: AD293 cells, transient transfection, pcDNA3.3-TOPO; lysate supernatant used as enzyme
T1 sequence (B3VTJ2 1-941): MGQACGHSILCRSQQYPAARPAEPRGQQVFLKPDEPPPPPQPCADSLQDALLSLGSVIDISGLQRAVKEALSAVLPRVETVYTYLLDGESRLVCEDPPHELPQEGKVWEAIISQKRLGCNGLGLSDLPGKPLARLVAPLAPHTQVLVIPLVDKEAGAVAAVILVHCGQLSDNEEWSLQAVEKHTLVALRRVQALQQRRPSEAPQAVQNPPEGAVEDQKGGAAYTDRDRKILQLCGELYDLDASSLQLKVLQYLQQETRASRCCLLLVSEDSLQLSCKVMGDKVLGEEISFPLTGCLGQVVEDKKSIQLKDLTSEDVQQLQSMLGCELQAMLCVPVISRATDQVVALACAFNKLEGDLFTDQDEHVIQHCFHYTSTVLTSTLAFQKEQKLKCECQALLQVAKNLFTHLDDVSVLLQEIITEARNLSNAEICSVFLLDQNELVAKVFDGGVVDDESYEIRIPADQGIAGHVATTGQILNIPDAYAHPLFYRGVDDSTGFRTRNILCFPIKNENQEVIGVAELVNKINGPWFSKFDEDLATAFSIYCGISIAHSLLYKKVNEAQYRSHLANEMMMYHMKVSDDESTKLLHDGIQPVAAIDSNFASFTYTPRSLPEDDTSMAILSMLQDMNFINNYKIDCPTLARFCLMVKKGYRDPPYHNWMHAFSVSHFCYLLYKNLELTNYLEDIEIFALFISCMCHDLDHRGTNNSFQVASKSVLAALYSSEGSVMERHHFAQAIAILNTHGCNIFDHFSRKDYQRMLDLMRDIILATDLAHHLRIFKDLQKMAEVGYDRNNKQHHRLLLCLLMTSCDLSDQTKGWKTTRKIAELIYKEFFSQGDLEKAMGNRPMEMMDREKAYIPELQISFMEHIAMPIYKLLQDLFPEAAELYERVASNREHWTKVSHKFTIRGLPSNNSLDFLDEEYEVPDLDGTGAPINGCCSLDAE
Test: PDE2 fluorescence polarization (IMAP FP) inhibition assay, rhesus enzyme
Type: biochemical, rhesus macaque
Conditions: Lab A; read-out: Rhesus PDE2 Ki (nM) Lab A
Description: The activity of the compounds in accordance with the present invention as PDE2 inhibitors may be readily determined using a fluorescence polarization (FP) methodology (Huang, W., et al., J. Biomol Screen, 2002, 7: 215).
In a typical experiment the PDE2 inhibitory activity of the compounds of the present invention was determined in accordance with the following experimental method. Rhesus PDE2A3 was amplified from rhesus macaque brain cDNA (Biochain Institute, Hayward, Calif.) using primers based on human PDE2A sequence (accession NM_002599.3) where the forward primer containing a Kozak consensus was 5′-[…]-3′ and the reverse primer was 5′-[…]-3′. Amplification with Easy-A High-Fidelity PCR cloning enzyme (Stratagene, La Jolla, Calif.) was 95° C. for 2 minutes followed by thirty three cycles of 95° C. for 40 seconds, 52° C. for 30 seconds, and 72° C. for 2 minutes 48 seconds. Final extension was 72° C. for 7 minutes. The PCR product was TA cloned into pcDNA3.3-TOPO (Invitrogen, Carlsbad, Calif.) according to standard protocol. A consensus sequence was developed from multiple clones and then deposited into GenBank (EU812167). AD293 cells (Stratagene, La Jolla, Calif.) with 70-80% confluency were transiently transfected with rhesus PDE2A3/pcDNA3.3-TOPO using Lipofectamine 2000 according to manufacturer specifications (Invitrogen, Carlsbad, Calif.). Cells were harvested 48 hours post-transfection and lysed by sonication (setting 3, 10×5 sec pulses) in a buffer containing 20 mM HEPES pH 7.4, 1 mM EDTA and Complete Protease Inhibitor Cocktail Tablets (Roche, Indianapolis, Ind.). Lysate was collected by centrifugation at 75,000×g for 20 minutes at 4° C. and supernatant utilized for evaluation of PDE2 activity. The fluorescence polarization assay for cyclic nucleotide phosphodiesterases was performed using an IMAP® FP kit supplied by Molecular Devices, Sunnyvale, Calif. (product # R8139). […] Assays were performed at room temperature in 384-well microtiter plates with an incubation volume of 20.2 μL. Solutions of test compounds were prepared in DMSO and serially diluted with DMSO to yield 8 μL of each of 10 solutions differing by 3-fold in concentration, at 32 serial dilutions per plate. […] 0% of inhibition is determined by using DMSO (1% final concentrations).
A Labcyte Echo 555 (Labcyte, Sunnyvale, Calif.) is used to dispense 200 nL from each well of the titration plate to the 384 well assay plate. Ten microliters of a solution of enzyme (1/2000 final dilution from aliquots; sufficient to produce 20% substrate conversion) was added to the assay plate. Next 10 uL of a separate solution of the substrate FAM-labeled cAMP (50 nM final concentration product # R7506 from Molecular Devices) and the activator cGMP (1 uM final concentration), prepared in the assay buffer (10 mM Tris HCl, pH 7.2, 10 mM MgCl2, 0.05% NaN3 0.01% Tween-20, and 1 mM DTT) was added to the assay plate and shaken to mix. The reaction is allowed to proceed at room temperature for 60 minutes. A binding solution is then made from the kit components, comprised of 80% Solution A, 20% Solution B and binding reagent at a volume of 1/600 the total binding solution. The enzymatic reaction is stopped by addition of 60 μl, of the binding solution to each well of the assay plates and the plates are sealed and shaken for 30 seconds. The plate was incubated at room temperature for at least one hour prior to determining the fluorescence polarization (FP). The parallel and perpendicular fluorescence of each well of the plate was measured using a Tecan Genios Pro plate reader (Tecan, Switzerland) or Perkin Elmer EnVision™ plate reader (Waltham, Mass.). Fluorescence polarization (mP) was calculated from the parallel (S) and perpendicular (P) fluorescence of each sample well and the analogous values for the median control well, containing only substrate (So and Po), using the following equation: Polarization (mP)=1000*(S/So−P/Po)/(S/So+P/Po).

Row | Ki | SMILES
1 | 162 nM | Cc1nc(-c2cnn(C(C)c3ccc(OC(F)F)cc3F)c2)cc(=O)[nH]1 (single isomer, unassigned) [Example 88, (S)- or (R)-6-(1-(1-(4-(difluoromethoxy)-2-fluorophenyl)ethyl)-1H-pyrazol-4-yl)-2-methylpyrimidin-4(3H)-one]
2 | 6810 nM | Cc1nc(-c2cnn(C(C)c3ccc(C(F)(F)F)cc3C(F)(F)F)c2)cc(=O)[nH]1 (single isomer, unassigned) [Example 145, (S)- or (R)-6-(1-(1-(2,4-bis(trifluoromethyl)phenyl)ethyl)-1H-pyrazol-4-yl)-2-methylpyrimidin-4(3H)-one]
3 | 1260 nM | Cc1nc(-c2cnn(C(C)c3ccc(CC(F)(F)F)cc3F)c2)cc(=O)[nH]1 (single isomer, unassigned) [Example 96, (S)- or (R)-6-(1-(1-(2-fluoro-4-(2,2,2-trifluoroethyl)phenyl)ethyl)-1H-pyrazol-4-yl)-2-methylpyrimidin-4(3H)-one]
4 | 1840 nM | Cc1nc(-c2cnn(C(C)c3ccc(OC(F)F)cc3C)c2)cc(=O)[nH]1 (single isomer, unassigned) [Example 89, (R)- or (S)-6-(1-(1-(4-(difluoromethoxy)-2-methylphenyl)ethyl)-1H-pyrazol-4-yl)-2-methylpyrimidin-4(3H)-one]
5 | 218 nM | Cc1ccc(C(C)n2cc(-c3cc(=O)[nH]c(C)n3)cn2)c(F)c1 (single isomer, unassigned) [Example 151, (S)- or (R)-6-(1-(1-(2-fluoro-4-methylphenyl)ethyl)-1H-pyrazol-4-yl)-2-methylpyrimidin-4(3H)-one]

Same assay, conditions: Lab B; read-out: Rhesus PDE2 Ki (nM) Lab B

Row | SMILES | Ki
6 | Cc1nc(-c2ccn(C(C)c3ccc(OC(F)(F)F)cc3)n2)cc(=O)[nH]1 (stereo not shown) [Example 75, 2-methyl-6-(1-(1-(4-(trifluoromethoxy)phenyl)ethyl)-1H-pyrazol-3-yl)pyrimidin-4(3H)-one] | 3250 nM
7 | Cc1ccc(C(C)n2ccc(-c3cc(=O)[nH]c(C)n3)n2)cc1 (stereo not shown) [Example 157, 2-methyl-6-(1-(1-(p-tolyl)ethyl)-1H-pyrazol-3-yl)pyrimidin-4(3H)-one] | 48700 nM
8 | Cc1nc(-c2ccn(C(C)c3cccc(C(F)(F)F)c3)n2)cc(=O)[nH]1 (stereo not shown) [Example 159, 2-methyl-6-(1-(1-(3-(trifluoromethyl)phenyl)ethyl)-1H-pyrazol-3-yl)pyrimidin-4(3H)-one] | 25700 nM
9 | Cc1nc(-n2cc(C(C)c3ccc(C(F)(F)F)c(F)c3)cn2)cc(=O)[nH]1 (single isomer, unassigned) [Example 51, (S)- or (R)-6-(4-(1-(3-fluoro-4-(trifluoromethyl)phenyl)ethyl)-1H-pyrazol-1-yl)-2-methylpyrimidin-4(3H)-one] | > 1000 nM
10 | Cc1nc(-c2ccnn2C(C)c2ccc(C(F)(F)F)cc2)cc(=O)[nH]1 (stereo not shown) [Example 74, 2-methyl-6-(1-(1-(4-(trifluoromethyl)phenyl)ethyl)-1H-pyrazol-5-yl)pyrimidin-4(3H)-one] | 11000 nM
11 | Cc1nc(-c2cc(C(C)c3ccc(C(F)(F)F)cc3)nn2C)cc(=O)[nH]1 (single isomer, unassigned) [Example 132, (S)- or (R)-2-methyl-6-(1-methyl-3-(1-(4-(trifluoromethyl)phenyl)ethyl)-1H-pyrazol-5-yl)pyrimidin-4(3H)-one] | > 1000 nM
12 | COCCc1ccc(C(C)c2cnn(-c3cc(=O)[nH]c(C)n3)c2)cc1 (stereo not shown) [Example 41, 6-(4-(1-(4-(2-methoxyethyl)phenyl)ethyl)-1H-pyrazol-1-yl)-2-methylpyrimidin-4(3H)-one] | 7300 nM
13 | Cc1nc(-c2cnn(C(C)c3ccccc3)c2)cc(=O)[nH]1 (stereo not shown) [Example 156, 2-methyl-6-(1-(1-phenylethyl)-1H-pyrazol-4-yl)pyrimidin-4(3H)-one] | 4890 nM
14 | Cc1nc(-c2cnn(C(C)c3cccc(C(F)(F)F)c3)c2)cc(=O)[nH]1 (stereo not shown) [Example 73, 2-methyl-6-(1-(1-(3-(trifluoromethyl)phenyl)ethyl)-1H-pyrazol-4-yl)pyrimidin-4(3H)-one] | 6380 nM
15 | COC(=O)c1ccc(C(C)n2ccc(-c3cc(=O)[nH]c(C)n3)n2)cc1 (stereo not shown) [Example 162, methyl 4-(1-(3-(2-methyl-6-oxo-1,6-dihydropyrimidin-4-yl)-1H-pyrazol-1-yl)ethyl)benzoate] | 29800 nM

Further lines, results first:

Row | Ki | SMILES
16 | 467 nM | Cc1nc(-n2cc(C(C)c3ccc(OC(F)(F)F)cc3C)cn2)cc(=O)[nH]1 (stereo not shown) [Example 55, 2-methyl-6-(4-(1-(2-methyl-4-(trifluoromethoxy)phenyl)ethyl)-1H-pyrazol-1-yl)pyrimidin-4(3H)-one]
17 | 2300 nM | CCCC(c1ccc(C(F)(F)F)cc1)n1ccc(-c2cc(=O)[nH]c(C)n2)n1 (stereo not shown) [Example 160, 2-methyl-6-(1-(1-(4-(trifluoromethyl)phenyl)butyl)-1H-pyrazol-3-yl)pyrimidin-4(3H)-one]
18 | 411 nM | Cc1nc(-n2cc(C(C)c3ccc(C(C)(C)C)cc3)cn2)cc(=O)[nH]1 (stereo not shown) [Example 45, 6-(4-(1-(4-(tert-butyl)phenyl)ethyl)-1H-pyrazol-1-yl)-2-methylpyrimidin-4(3H)-one]
19 | 588 nM | Cc1nc(-c2cnn(C(C)c3ccc(OC(F)(F)F)cc3)c2)cc(=O)[nH]1 (single isomer, unassigned) [Example 128, (S)- or (R)-2-methyl-6-(1-(1-(4-(trifluoromethoxy)phenyl)ethyl)-1H-pyrazol-4-yl)pyrimidin-4(3H)-one]
20 | 2620 nM | Cc1nc(-n2cc(C(C)c3ccc4c(c3)CCOC4)cn2)cc(=O)[nH]1 (stereo not shown) [Example 42, 6-(4-(1-(isochroman-6-yl)ethyl)-1H-pyrazol-1-yl)-2-methylpyrimidin-4(3H)-one]
21 | 2480 nM | Cc1nc(-n2cc(C(C)c3ccc4c(c3)COCC4)cn2)cc(=O)[nH]1 (stereo not shown) [Example 46, 6-(4-(1-(isochroman-7-yl)ethyl)-1H-pyrazol-1-yl)-2-methylpyrimidin-4(3H)-one]
22 | 313 nM | CCCc1ccc(C(C)c2cnn(-c3cc(=O)[nH]c(C)n3)c2)cc1 (stereo not shown) [Example 43, 2-methyl-6-(4-(1-(4-propylphenyl)ethyl)-1H-pyrazol-1-yl)pyrimidin-4(3H)-one]
